Source: patent US11319315B2, “Cyclohexyl acid triazole azoles as LPA antagonists” (BRISTOL-MYERS SQUIBB COMPANY, priority 2017, dated 2022)
Where a name gives a salt, the structure may show the parent alone.

molecular target: T1, human LPA1 (Homo sapiens, UniProt Q92633); experiment: LPA1 functional antagonist assay (LPA-induced calcium flux in CHO cells overexpressing human LPA1); format: cell-based; conditions: inhibition of calcium flux induced by 10 nM LPA, CHO cells overexpressing human LPA1; read-out: hLPA1 IC50
T1 construct: expressed in transfected cells; host or cells: Chinese hamster ovary (CHO) cells
T1 sequence (Q92633 whole entry): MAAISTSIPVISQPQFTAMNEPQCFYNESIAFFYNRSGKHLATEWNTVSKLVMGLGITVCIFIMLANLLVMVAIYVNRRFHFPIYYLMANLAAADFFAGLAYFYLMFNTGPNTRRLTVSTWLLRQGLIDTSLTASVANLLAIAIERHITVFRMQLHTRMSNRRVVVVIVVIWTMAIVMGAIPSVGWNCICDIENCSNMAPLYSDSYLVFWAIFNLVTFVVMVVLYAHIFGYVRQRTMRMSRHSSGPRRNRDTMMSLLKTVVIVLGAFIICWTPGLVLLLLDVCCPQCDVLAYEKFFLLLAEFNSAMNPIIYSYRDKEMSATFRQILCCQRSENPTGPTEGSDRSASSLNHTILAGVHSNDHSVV
Outline: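 CHO cells overexpressing human LPA1, dye-loaded 30 min at 37 °C, then given compound (0.08 nM–5 μM final, 0.5% DMSO) in HBSS/20 mM HEPES/0.1% fatty-acid-free BSA for 20 min at room temperature before 10 nM LPA. IC50 as 50% inhibition of LPA-evoked calcium flux, 4-parameter logistic fit.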

Compound	IC50
Cn1nnc(-c2ccc(O[C@H]3CCC[C@H](C(=O)O)C3)cn2)c1Cn1nnnc1CC1CC1 [Example 251, (1S,3S)-3-((6-(5-((5-(cyclopropylmethyl)-1H-tetrazol-1-yl)methyl)-1-methyl-1H-1,2,3-triazol-4-yl)pyridin-3-yl)oxy)cyclohexane-1-carboxylic acid]	125 nM
CCCc1nnn(Cc2c(-c3ccc(O[C@H]4CCC[C@H](C(=O)O)C4)cn3)nnn2C)n1 [Example 252, (1S,3S)-3-((6-(1-methyl-5-((5-propyl-2H-tetrazol-2-yl)methyl)-1H-1,2,3-triazol-4-yl)pyridin-3-yl)oxy)cyclohexane-1-carboxylic acid]	531 nM
CCCc1nnnn1Cc1c(-c2ccc(O[C@H]3CCC[C@H](C(=O)O)C3)cn2)nnn1C [Example 253, (1S,3S)-3-((6-(1-methyl-5-((5-propyl-1H-tetrazol-1-yl)methyl)-1H-1,2,3-triazol-4-yl)pyridin-3-yl)oxy)cyclohexane-1-carboxylic acid]	264 nM
CC(C)Cc1nnn(Cc2c(-c3ccc(O[C@H]4CCC[C@H](C(=O)O)C4)cn3)nnn2C)n1 [Example 254, (1S,3S)-3-((6-(5-((5-isobutyl-2H-tetrazol-2-yl)methyl)-1-methyl-1H-1,2,3-triazol-4-yl)pyridin-3-yl)oxy)cyclohexane-1-carboxylic acid]	288 nM
CC(C)Cc1nnnn1Cc1c(-c2ccc(O[C@H]3CCC[C@H](C(=O)O)C3)cn2)nnn1C [Example 255, (1S,3S)-3-((6-(5-((5-isobutyl-1H-tetrazol-1-yl)methyl)-1-methyl-1H-1,2,3-triazol-4-yl)pyridin-3-yl)oxy)cyclohexane-1-carboxylic acid]	237 nM
CCCCc1nnnn1Cc1c(-c2ccc(O[C@H]3CCC[C@H](C(=O)O)C3)cn2)nnn1C [Example 256, (1S,3S)-3-((6-(5-((5-butyl-1H-tetrazol-1-yl)methyl)-1-methyl-1H-1,2,3-triazol-4-yl)pyridin-3-yl)oxy)cyclohexane-1-carboxylic acid]	111 nM
CCCCc1nnn(Cc2c(-c3ccc(O[C@H]4CCC[C@H](C(=O)O)C4)cn3)nnn2C)n1 [Example 257, (1S,3S)-3-((6-(5-((5-butyl-2H-tetrazol-2-yl)methyl)-1-methyl-1H-1,2,3-triazol-4-yl)pyridin-3-yl)oxy)cyclohexane-1-carboxylic acid]	12.5 nM
Cn1nnc(-c2ccc(O[C@H]3CCC[C@H](C(=O)O)C3)cn2)c1Cn1nnnc1C1CCCC1 [Example 258, (1S,3S)-3-((6-(5-((5-cyclopentyl-1H-tetrazol-1-yl)methyl)-1-methyl-1H-1,2,3-triazol-4-yl)pyridin-3-yl)oxy)cyclohexane-1-carboxylic acid]	433 nM
Cn1nnc(-c2ccc(O[C@H]3CCC[C@H](C(=O)O)C3)cn2)c1Cn1nnc(C2CCCC2)n1 [Example 259, (1S,3S)-3-((6-(5-((5-cyclopentyl-2H-tetrazol-2-yl)methyl)-1-methyl-1H-1,2,3-triazol-4-yl)pyridin-3-yl)oxy)cyclohexane-1-carboxylic acid]	31 nM
Cc1nc(-c2nnn(C)c2Cn2ncc(CC(C)C)n2)ccc1O[C@H]1CCC[C@H](C(=O)O)C1 [Example 260, (1 S,3 S)-3-((6-(5-((4-Isobutyl-2H-1,2,3-triazol-2-yl)methyl)-1-methyl-1H-1,2,3-triazol-4-yl)-2-methylpyridin-3-yl)oxy)cyclohexane-1-carboxylic acid]	35 nM
Cc1nc(-c2nnn(C)c2Cn2nncc2CC(C)C)ccc1O[C@H]1CCC[C@H](C(=O)O)C1 [Example 261, (1S,3S)-3-((6-(5-((5-isobutyl-1H-1,2,3-triazol-1-yl)methyl)-1-methyl-1H-1,2,3-triazol-4-yl)-2-methyl-pyridin-3-yl)oxy)cyclohexane-1-carboxylic acid]	115 nM
Cc1nc(-c2nnn(C)c2Cn2cc(CC(C)C)nn2)ccc1O[C@H]1CCC[C@H](C(=O)O)C1 [Example 262, (1S,3S)-3-((6-(5-((4-isobutyl-1H-1,2,3-triazol-1-yl)methyl)-1-methyl-1H-1,2,3-triazol-4-yl)-2-methylpyridin-3-yl)oxy)cyclohexane-1-carboxylic acid]	86 nM
Cc1nc(-c2nnn(C)c2Cn2nncc2CC2CC2)ccc1O[C@H]1CCC[C@H](C(=O)O)C1 [Example 263, (1S,3S)-3-((6-(5-((5-(cyclopropyl-methyl)-1H-1,2,3-triazol-1-yl)-methyl)-1-methyl-1H-1,2,3-triazol-4-yl)-2-methylpyridin-3-yl)oxy)-cyclohexane-1-carboxylic acid]	41 nM
Cc1nc(-c2nnn(C)c2Cn2ncc(CC3CC3)n2)ccc1O[C@H]1CCC[C@H](C(=O)O)C1 [Example 264, (1S,3S)-3-((6-(5-((4-(cyclopropyl-methyl)-2H-1,2,3-triazol-2-yl)methyl)-1-methyl-1H-1,2,3-triazol-4-yl)-2-methylpyridin-3-yl)oxy)cyclohexane-1-carboxylic acid]	14 nM
Cc1nc(-c2nnn(C)c2Cn2cc(CC3CC3)nn2)ccc1O[C@H]1CCC[C@H](C(=O)O)C1 [Example 265, (1S,3S)-3-((6-(5-((4-(cyclopropyl-methyl)-1H-1,2,3-triazol-1-yl)methyl)-1-methyl-1H-1,2,3-triazol-4-yl)-2-methylpyridin-3-yl)oxy)cyclohexane-1-carboxylic acid]	40 nM
Cc1nc(-c2nnn(C)c2Cn2ncc(C3CC3)n2)ccc1O[C@H]1CCC[C@H](C(=O)O)C1 [Example 266, (1S,3S)-3-((6-(5-((4-cyclopropyl-2H-1,2,3-triazol-2-yl)methyl)-1-methyl-1H-1,2,3-triazol-4-yl)-2-methyl-pyridin-3-yl)oxy)cyclohexane-1-carboxylic acid]	90 nM
Cc1nc(-c2nnn(C)c2Cn2cc(C3CC3)nn2)ccc1O[C@H]1CCC[C@H](C(=O)O)C1 [Example 267, (1S,3S)-3-((6-(5-((4-cyclopropyl-1H-1,2,3-triazol-1-yl)methyl)-1-methyl-1H-1,2,3-triazol-4-yl)-2-methylpyridin-3-yl)oxy)cyclohexane-1-carboxylic acid]	2210 nM
Cc1nc(-c2nnn(C)c2Cn2nncc2C2CC2)ccc1O[C@H]1CCC[C@H](C(=O)O)C1 [Example 268, (1S,3S)-3-((6-(5-((5-cyclopropyl-1H-1,2,3-triazol-1-yl)methyl)-1-methyl-1H-1,2,3-triazol-4-yl)-2-methyl-pyridin-3-yl)oxy)cyclohexane-1-carboxylic acid]	301 nM
CCCc1cn(Cc2c(-c3ccc(O[C@H]4CCC[C@H](C(=O)O)C4)c(C)n3)nnn2C)nn1 [Example 269, (1 S,3S)-3-((2-methyl-6-(1-methyl-5-((4-propyl-1H-1,2,3-triazol-1-yl)methyl)-1H-1,2,3-triazol-4-yl)pyridin-3-yl)oxy)cyclohexane-1-carboxylic acid]	76 nM
CCCc1cnn(Cc2c(-c3ccc(O[C@H]4CCC[C@H](C(=O)O)C4)c(C)n3)nnn2C)n1 [Example 270, (1S,3S)-3-((2-methyl-6-(1-methyl-5-((4-propyl-2H-1,2,3-triazol-2-yl)methyl)-1H-1,2,3-triazol-4-yl)pyridin-3-yl)oxy)cyclohexane-1-carboxylic acid]	61 nM
C=C(C)c1cnn(Cc2c(-c3ccc(O[C@H]4CCC[C@H](C(=O)O)C4)c(C)n3)nnn2C)n1 [Example 271, (1S,3 S)-3-((2-methyl-6-(1-methyl-5-((4-(prop-1-en-2-yl)-2H-1,2,3-triazol-2-yl)methyl)-1H-1,2,3-triazol-4-yl)pyridin-3-yl)oxy)cyclohexane-1-carboxylic acid]	136 nM
Cc1nc(-c2nnn(C)c2Cn2ncc(C(C)C)n2)ccc1O[C@H]1CCC[C@H](C(=O)O)C1 [Example 272, (1S,3S)-3-((6-(5-((4-isopropyl-2H-1,2,3-triazol-2-yl)methyl)-1-methyl-1H-1,2,3-triazol-4-yl)-2-methylpyridin-3-yl)oxy)cyclohexane-1-carboxylic acid]	35 nM
Cc1nc(-c2nnn(C)c2Cn2ncc(-c3ccccc3)n2)ccc1O[C@H]1CCC[C@H](C(=O)O)C1 [Example 273, (1 S,3S)-3-((2-methyl-6-(1-methyl-5-((4-phenyl-2H-1,2,3-triazol-2-yl)methyl)-1H-1,2,3-triazol-4-yl)pyridin-3-yl)oxy)cyclohexane-1-carboxylic acid]	57 nM
Cc1nc(-c2nnn(C)c2Cn2sc(C3CC3)nc2=N)ccc1O[C@H]1CCC[C@H](C(=O)O)C1 [Example 274, (1 S,3 S)-3-((6-(5-((5-cyclopropyl-3-imino-1,2,4-thiadiazol-2(3H)-yl)methyl)-1-methyl-1H-1,2,3-triazol-4-yl)-2-methylpyridin-3-yl)oxy)cyclohexane-1-carboxylic acid]	1000 nM
CCCCc1nc(Nc2c(-c3ccc(O[C@H]4CCC[C@H](C(=O)O)C4)c(C)n3)nnn2C)no1 [Example 275, (1 S,3 S)-3-((6-(5-((5-Butyl-1,2,4-oxadiazol-3-yl)amino)-1-methyl-1H-1,2,3-triazol-4-yl)-2-methylpyridin-3-yl)oxy)cyclohexane-1-carboxylic acid, 2 TFA salt]	18 nM
Cc1nc(-c2nnn(C)c2Nc2nnc(CC3CC3)o2)ccc1O[C@H]1CCC[C@H](C(=O)O)C1 [Example 276, (1 S,3S)-3-((6-(5-((5-(Cyclopropylmethyl)-1,3,4-oxadiazol-2-yl)amino)-1-methyl-1H-1,2,3-triazol-4-yl)-2-methylpyridin-3-yl)oxy)cyclohexane-1-carboxylic acid, 2 TFA salt]	446 nM
Cc1nc(-c2nnn(C)c2Nc2noc(CC3CC3)n2)ccc1O[C@H]1CCC[C@H](C(=O)O)C1 [Example 277, (1S,3S)-3-{[6-(5-{[5-(Cyclo-propylmethyl)-1,2,4-oxadiazol-3-yl]amino}-1-methyl-1H-1,2,3-triazol-4-yl)-2-methylpyridin-3-yl]oxy}cyclohexane-1-carboxylic acid, bis TFA salt]	33 nM
